Bridge positions count the residues as written; N and C are the ends. Square brackets hold non-standard residues; d marks the D form. Peptide text beside a SMILES is read from it. Nle = CCCC[C@H](N)C(=O)O

In test [1] the target is T1, human Kv1.3 voltage-gated K+ channel (Homo sapiens, UniProt P22001).
T1 construct: host or cells: CHO-DUKX
The test can be described thus: cell-based. As to conditions: inhibition of thallium flux, CHO-DUKX cells with human Kv1.3; read-out: IC50.

Test [2] has as its target T2, Kv1.6 (Homo sapiens, UniProt P17658).
T2 construct: expressed in transfected cells; host or cells: Chinese Hamster Ovary (CHO)
The test can be described thus: cell-based. The settings on record: for IC50: CHO cells, whole-cell patch clamp, read-out: Potency IC50 (nM) Kv1.6; for Selectivity Kv1.6/Kv1.3: ratio IC50[Kv1.6]/IC50[Kv1.3]. (In general: Patch clamp records ionic current or voltage across a cell membrane.)

In test [3] the target is T3, Kv1.3 (Homo sapiens, UniProt P22001).
T3 construct: expressed in transfected cells; host or cells: Chinese Hamster Ovary (CHO)
The test can be described thus: cell-based. The settings on record: CHO cells, whole-cell patch clamp; read-out: Potency IC50 (nM) Kv1.3.

Test [4] deals with T4, Kv1.1 (Homo sapiens, UniProt Q09470).
T4 construct: expressed in transfected cells; host or cells: Chinese Hamster Ovary (CHO)
The test can be described thus: cell-based. As to conditions: for IC50: CHO cells, whole-cell patch clamp, read-out: Potency IC50 (nM) Kv1.1; for Selectivity Kv1.1/Kv1.3: ratio IC50[Kv1.1]/IC50[Kv1.3].

Test [5] concerns the target T5, Kv1.2 (Homo sapiens, UniProt P16389).
T5 construct: expressed in transfected cells; host or cells: Chinese Hamster Ovary (CHO)
Briefly: cell-based. As to conditions: for IC50: CHO cells, whole-cell patch clamp, read-out: Potency IC50 (nM) Kv1.2.

Test [6] concerns the target Rat whole blood (Rattus norvegicus, UniProt P15384).

T4 sequence (Q09470 whole entry): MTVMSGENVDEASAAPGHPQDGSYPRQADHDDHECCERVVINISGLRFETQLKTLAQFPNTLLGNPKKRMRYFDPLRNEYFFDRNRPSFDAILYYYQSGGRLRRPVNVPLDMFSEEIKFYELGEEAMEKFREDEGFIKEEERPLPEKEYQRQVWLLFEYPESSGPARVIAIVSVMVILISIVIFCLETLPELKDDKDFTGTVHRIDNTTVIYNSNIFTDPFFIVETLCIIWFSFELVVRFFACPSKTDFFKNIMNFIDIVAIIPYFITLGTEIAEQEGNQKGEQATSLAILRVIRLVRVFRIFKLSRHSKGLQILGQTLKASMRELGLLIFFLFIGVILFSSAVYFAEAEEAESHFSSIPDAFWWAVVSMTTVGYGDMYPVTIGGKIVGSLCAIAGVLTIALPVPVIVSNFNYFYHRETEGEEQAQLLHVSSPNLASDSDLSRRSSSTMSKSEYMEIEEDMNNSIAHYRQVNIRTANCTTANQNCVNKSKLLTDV
T3 sequence (P22001 whole entry): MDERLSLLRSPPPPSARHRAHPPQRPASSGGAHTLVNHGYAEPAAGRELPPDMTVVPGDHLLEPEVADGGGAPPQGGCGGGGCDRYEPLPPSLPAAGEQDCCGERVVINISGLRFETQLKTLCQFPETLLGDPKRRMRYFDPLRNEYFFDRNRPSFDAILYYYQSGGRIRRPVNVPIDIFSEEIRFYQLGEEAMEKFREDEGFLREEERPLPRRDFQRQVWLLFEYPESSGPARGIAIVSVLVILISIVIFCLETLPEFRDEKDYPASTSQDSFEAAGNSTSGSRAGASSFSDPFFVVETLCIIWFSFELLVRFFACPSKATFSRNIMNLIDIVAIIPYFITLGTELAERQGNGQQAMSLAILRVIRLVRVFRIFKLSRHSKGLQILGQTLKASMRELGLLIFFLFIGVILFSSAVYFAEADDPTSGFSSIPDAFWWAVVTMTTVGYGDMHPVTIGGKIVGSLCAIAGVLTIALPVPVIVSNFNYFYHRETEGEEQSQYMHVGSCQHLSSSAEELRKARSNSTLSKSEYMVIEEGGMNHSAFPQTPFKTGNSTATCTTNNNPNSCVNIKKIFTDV
T1 sequence (P22001 whole entry): as above
Rat whole blood, sequence (P15384 whole entry): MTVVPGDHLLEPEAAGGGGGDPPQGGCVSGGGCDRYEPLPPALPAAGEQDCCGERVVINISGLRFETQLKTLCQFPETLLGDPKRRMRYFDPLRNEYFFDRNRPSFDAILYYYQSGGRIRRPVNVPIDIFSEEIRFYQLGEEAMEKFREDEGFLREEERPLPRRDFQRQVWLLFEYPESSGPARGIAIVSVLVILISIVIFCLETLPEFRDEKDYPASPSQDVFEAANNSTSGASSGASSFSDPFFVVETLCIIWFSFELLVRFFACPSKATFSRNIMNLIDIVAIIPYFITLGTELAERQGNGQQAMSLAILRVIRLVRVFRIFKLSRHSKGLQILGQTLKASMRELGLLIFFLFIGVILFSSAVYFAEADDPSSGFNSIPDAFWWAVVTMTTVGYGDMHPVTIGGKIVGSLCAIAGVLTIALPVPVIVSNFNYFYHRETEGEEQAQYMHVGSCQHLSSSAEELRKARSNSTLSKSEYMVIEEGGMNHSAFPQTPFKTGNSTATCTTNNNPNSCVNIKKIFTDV
T5 sequence (P16389 whole entry): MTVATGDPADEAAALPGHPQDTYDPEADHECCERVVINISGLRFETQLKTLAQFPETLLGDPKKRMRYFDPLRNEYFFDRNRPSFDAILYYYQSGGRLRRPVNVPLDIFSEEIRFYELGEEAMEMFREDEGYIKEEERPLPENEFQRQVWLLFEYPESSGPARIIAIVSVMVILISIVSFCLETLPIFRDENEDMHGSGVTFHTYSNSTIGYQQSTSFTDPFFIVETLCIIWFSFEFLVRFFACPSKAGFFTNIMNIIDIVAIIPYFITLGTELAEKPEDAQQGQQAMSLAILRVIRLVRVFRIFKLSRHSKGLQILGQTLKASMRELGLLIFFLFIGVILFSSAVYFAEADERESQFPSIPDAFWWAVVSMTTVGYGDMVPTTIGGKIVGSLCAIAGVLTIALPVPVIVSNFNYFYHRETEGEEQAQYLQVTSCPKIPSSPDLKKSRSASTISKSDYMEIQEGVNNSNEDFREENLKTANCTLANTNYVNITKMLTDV
T2 sequence (P17658 whole entry): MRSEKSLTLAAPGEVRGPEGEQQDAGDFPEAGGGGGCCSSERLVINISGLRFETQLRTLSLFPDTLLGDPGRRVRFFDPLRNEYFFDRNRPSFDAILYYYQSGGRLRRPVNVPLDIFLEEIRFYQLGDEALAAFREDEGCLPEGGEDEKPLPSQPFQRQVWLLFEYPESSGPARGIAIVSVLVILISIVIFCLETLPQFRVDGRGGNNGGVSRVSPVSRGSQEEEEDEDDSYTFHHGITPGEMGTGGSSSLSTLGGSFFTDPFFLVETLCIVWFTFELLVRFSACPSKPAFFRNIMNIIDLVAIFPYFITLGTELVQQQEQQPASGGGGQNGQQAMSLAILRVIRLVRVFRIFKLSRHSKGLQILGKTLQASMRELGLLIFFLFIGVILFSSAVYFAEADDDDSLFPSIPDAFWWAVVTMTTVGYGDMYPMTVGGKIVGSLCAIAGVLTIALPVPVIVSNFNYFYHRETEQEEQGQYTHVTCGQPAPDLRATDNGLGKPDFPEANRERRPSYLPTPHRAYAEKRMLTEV

A word on the IC50: it is the concentration needed to halve the response being measured. As for `CC[C@H](C)[C@@H]1NC(=O)[C@H](C)NC(=O)[C@H](CCCCN)NC(=O)[C@H](CC(C)C)NC(=O)[C@@H]2CSSC[C@@H](C(=O)N[C@@H](Cc3ccc(O)cc3)C(=O)N3CCC[C@H]3C(=O)N[C@@H](CCCNC(=N)N)C(=O)O)NC(=O)[C@H](CCCCN)NC(=O)[C@@H]3CSSC[C@H](NC(=O)[C@H](CCC(=O)O)NC(=O)[C@H](C(C)C)NC(=O)[C@H](CO)NC(=O)[C@H](C)NC(=O)[C@H](CO)NC(=O)[C@@H](NC(=O)[C@H](CCCNC(=N)N)NC(=O)[C@H](CCSC)NC(=O)[C@H](CC(=O)O)NC(=O)[C@H](CCSC)NC(=O)[C@@H](N)CCC(N)=O)CSSC[C@H](NC(=O)[C@H](CCCCN)NC(=O)CNC(=O)[C@H](Cc4ccccc4)NC(=O)CNC(=O)[C@H](CCCNC(=N)N)NC(=O)CNC1=O)C(=O)N[C@@H](CCSC)C(=O)N[C@@H](CC(N)=O)C(=O)N[C@@H](CCCCN)C(=O)N[C@@H](CCCCN)C(=O)N3)C(=O)N[C@@H](CCCCN)C(=O)N[C@@H](CCC(N)=O)C(=O)N[C@@H](CCCCN)C(=O)N2` [Compound 2] (H-QMDMRCSASVECKQKCLKAIGRGFGKCMNKKCKCYPR-OH; disulfide 6-27, 12-32, 16-34), the IC50 in test [1] was 0.25 nM; in test [2], 1810 nM; in test [3], 1.5 nM; in test [4], above 3000 nM; in test [5], 97 nM. Moreover, the “Selectivity Kv1.1/Kv1.3” value in test [4] is listed as above 2000.
For `CC[C@H](C)[C@@H]1NC(=O)[C@H](C)NC(=O)[C@H](CCCCN)NC(=O)[C@H](CC(C)C)NC(=O)[C@@H]2CSSC[C@@H](C(=O)N[C@@H](Cc3ccc(O)cc3)C(=O)N3CCC[C@H]3C(=O)N[C@@H](CCCNC(=N)N)C(=O)O)NC(=O)[C@H](CCCCN)NC(=O)[C@@H]3CSSC[C@H](NC(=O)[C@H](CCC(=O)O)NC(=O)[C@H](C(C)C)NC(=O)[C@H](CO)NC(=O)[C@H](C)NC(=O)[C@H](CO)NC(=O)[C@@H](NC(=O)[C@H](CCCNC(=N)N)NC(=O)[C@H](CCSC)NC(=O)[C@H](CCC(=O)O)NC(=O)[C@H](CCSC)NC(=O)[C@@H](N)CC(N)=O)CSSC[C@H](NC(=O)[C@H](CCCCN)NC(=O)CNC(=O)[C@H](Cc4ccccc4)NC(=O)[C@H]([C@@H](C)CC)NC(=O)[C@H](CO)NC(=O)CNC1=O)C(=O)N[C@@H](CCSC)C(=O)N[C@@H](CC(N)=O)C(=O)N[C@@H](CCCCN)C(=O)N[C@@H](CCCCN)C(=O)N3)C(=O)N[C@@H](CCCCN)C(=O)N[C@@H](CCC(N)=O)C(=O)N[C@@H](CCCCN)C(=O)N2` [Compound 12] (H-NMEMRCSASVECKQKCLKAIGSIFGKCMNKKCKCYPR-OH; disulfide 6-27, 12-32, 16-34), the IC50 in test [1] is 0.23 nM; in test [2], above 3000 nM; in test [3], 0.11 nM; in test [4], above 3000 nM; in test [5], 228 nM. In addition, the “Selectivity Kv1.6/Kv1.3” value in test [2] is above 27600. Further, the “Selectivity Kv1.1/Kv1.3” value in test [4] is listed as above 27600.
With `CC[C@H](C)[C@@H]1NC(=O)[C@H](C)NC(=O)[C@H](CCCCN)NC(=O)[C@H](CC(C)C)NC(=O)[C@@H]2CSSC[C@@H](C(=O)N[C@@H](Cc3ccc(O)cc3)C(=O)N3CCC[C@H]3C(=O)N[C@@H](CCCNC(=N)N)C(N)=O)NC(=O)[C@H](CCCCN)NC(=O)[C@@H]3CSSC[C@H](NC(=O)[C@H](CCC(=O)O)NC(=O)[C@H](C(C)C)NC(=O)[C@H](CO)NC(=O)[C@H](C)NC(=O)[C@H](CO)NC(=O)[C@@H](NC(=O)[C@H](CCCNC(=N)N)NC(=O)[C@H](CCSC)NC(=O)[C@H](CC(=O)O)NC(=O)[C@H](CCSC)NC(=O)[C@@H](N)CC(N)=O)CSSC[C@H](NC(=O)[C@H](CCCCN)NC(=O)CNC(=O)[C@H](Cc4ccccc4)NC(=O)[C@H]([C@@H](C)CC)NC(=O)[C@H](CO)NC(=O)CNC1=O)C(=O)N[C@@H](CCSC)C(=O)N[C@@H](CC(N)=O)C(=O)N[C@@H](CCCCN)C(=O)N[C@@H](CCCCN)C(=O)N3)C(=O)N[C@@H](CCCCN)C(=O)N[C@@H](CC(C)C)C(=O)N[C@@H](CCCCN)C(=O)N2` [Compound 32] (H-NMDMRCSASVECKLKCLKAIGSIFGKCMNKKCKCYPR-NH2; disulfide 6-27, 12-32, 16-34), the IC50 in test [1] was 0.12 nM; in test [3], 0.38 nM; in test [6], at most 1 nM.
With `CCCC[C@@H]1NC(=O)[C@@H]2CSSC[C@H](NC(=O)[C@H](CCCNC(=N)N)NC(=O)[C@H](CCCC)NC(=O)[C@H](CC(=O)O)NC(=O)[C@H](CCCC)NC(=O)[C@@H](N)CO)C(=O)N[C@@H](CO)C(=O)N[C@@H](C)C(=O)N[C@@H](CO)C(=O)N[C@@H](C(C)C)C(=O)N[C@@H](CCC(=O)O)C(=O)N[C@H]3CSSC[C@H](NC(=O)[C@H](CCCCN)NC(=O)[C@H](CCCCN)NC(=O)[C@H](CC(N)=O)NC1=O)C(=O)N[C@@H](CCCCN)C(=O)N[C@H](C(=O)N[C@@H](Cc1ccc(O)cc1)C(=O)N1CCC[C@H]1C(=O)N[C@@H](CCCNC(=N)N)C(N)=O)CSSC[C@H](NC(=O)[C@H](CCCCN)NC(=O)[C@H](CCC(N)=O)NC(=O)[C@H](CCCCN)NC3=O)C(=O)N[C@@H](CC(C)C)C(=O)N[C@@H](CCCCN)C(=O)N[C@@H](C)C(=O)N[C@@H]([C@@H](C)CC)C(=O)NCC(=O)N[C@@H](CO)C(=O)N[C@@H]([C@@H](C)CC)C(=O)N[C@@H](Cc1ccccc1)C(=O)NCC(=O)N[C@@H](CCCCN)C(=O)N2` [Compound 66] (H-S[Nle]D[Nle]RCSASVECKQKCLKAIGSIFGKC[Nle]NKKCKCYPR-NH2; disulfide 6-27, 12-32, 16-34), the IC50 in test [1] was 0.12 nM; in test [3], 0.18 nM; in test [6], at most 1 nM.
Taken in the same sequence, the figures for `CCCC[C@@H]1NC(=O)[C@@H]2CSSC[C@H](NC(=O)[C@H](CCCNC(=N)N)NC(=O)[C@H](CCCC)NC(=O)[C@H](CC(=O)O)NC(=O)[C@H](CCCC)NC(=O)[C@@H](N)C(C)C)C(=O)N[C@@H](CO)C(=O)N[C@@H](C)C(=O)N[C@@H](CO)C(=O)N[C@@H](C(C)C)C(=O)N[C@@H](CCC(=O)O)C(=O)N[C@H]3CSSC[C@H](NC(=O)[C@H](CCCCN)NC(=O)[C@H](CCCCN)NC(=O)[C@H](CC(N)=O)NC1=O)C(=O)N[C@@H](CCCCN)C(=O)N[C@H](C(=O)N[C@@H](Cc1ccc(O)cc1)C(=O)N1CCC[C@H]1C(=O)N[C@@H](CCCNC(=N)N)C(N)=O)CSSC[C@H](NC(=O)[C@H](CCCCN)NC(=O)[C@H](CCC(N)=O)NC(=O)[C@H](CCCCN)NC3=O)C(=O)N[C@@H](CC(C)C)C(=O)N[C@@H](CCCCN)C(=O)N[C@@H](C)C(=O)N[C@@H]([C@@H](C)CC)C(=O)NCC(=O)N[C@@H](CO)C(=O)N[C@@H]([C@@H](C)CC)C(=O)N[C@@H](Cc1ccccc1)C(=O)NCC(=O)N[C@@H](CCCCN)C(=O)N2` [Compound 67] (H-V[Nle]D[Nle]RCSASVECKQKCLKAIGSIFGKC[Nle]NKKCKCYPR-NH2; disulfide 6-27, 12-32, 16-34) were 0.12 nM, 0.32 nM and at most 1 nM.
On to `CC[C@H](C)[C@@H]1NC(=O)[C@@H](NC(=O)[C@H](CO)NC(=O)[C@@H](N)CCCNC(=N)N)CSSC[C@@H](C(=O)O)NC(=O)[C@H]([C@@H](C)O)NC(=O)CNC(=O)[C@@H]2CSSC[C@@H]3NC(=O)[C@H](CCC(N)=O)NC(=O)[C@H](Cc4ccccc4)NC(=O)[C@H](C)NC(=O)[C@H]([C@@H](C)O)NC(=O)[C@H](CSSC[C@H](NC(=O)[C@H](Cc4ccccc4)NC(=O)[C@H](CO)NC(=O)[C@H](CC(C)C)NC(=O)[C@H](CCCNC(=N)N)NC(=O)[C@H](Cc4ccc(O)cc4)NC(=O)[C@H](CCCCN)NC(=O)[C@H](CCSC)NC(=O)[C@H](CO)NC(=O)[C@H](Cc4cnc[nH]4)NC(=O)[C@H](CCCCN)NC3=O)C(=O)N[C@@H](CCCNC(=N)N)C(=O)N[C@@H](CCCCN)C(=O)N[C@@H]([C@@H](C)O)C(=O)N2)NC(=O)[C@H](CCCNC(=N)N)NC(=O)[C@H](CO)NC(=O)[C@H](CCCCN)NC(=O)[C@@H]2CCCN2C(=O)[C@H]([C@@H](C)CC)NC(=O)[C@H]([C@@H](C)O)NC(=O)[C@H](CC(=O)O)NC1=O` [ShK, reference compound], for which the results for the half-inhibitory concentration (IC50) in test [2] and in test [5] were 0.19 nM and 11 nM, respectively.
Consider `CC[C@H](C)[C@H](NC(=O)[C@H](C)NC(=O)[C@H](C)NC(=O)[C@H](C)N)C(=O)N[C@@H](CO)C(=O)N[C@H]1CSSC[C@@H]2NC(=O)[C@H](CCCCN)NC(=O)CNC(=O)[C@H](CC(N)=O)NC(=O)[C@H](CCCCN)NC(=O)[C@@H]3CSSC[C@@H](C(N)=O)NC(=O)[C@H](Cc4ccc(O)cc4)NC(=O)[C@H](Cc4ccc(O)cc4)NC(=O)[C@@H]4CSSC[C@H](NC(=O)[C@H](CCCCN)NC(=O)[C@@H]5CCCN5C(=O)[C@@H]5CCCN5C(=O)[C@H](CSSC[C@H](NC(=O)[C@H](CCCCN)NC(=O)[C@H](CCCNC(=N)N)NC(=O)[C@H](CC(N)=O)NC(=O)[C@H](CCSC)NC2=O)C(=O)N[C@@H](CCCCN)C(=O)N4)NC(=O)[C@H](CCC(=O)O)NC(=O)[C@@H]2CCCN2C(=O)[C@H](CO)NC(=O)CNC(=O)[C@H](C(C)C)NC1=O)C(=O)N[C@@H](CCCNC(=N)N)C(=O)N[C@@H](C)C(=O)N[C@@H](CCC(N)=O)C(=O)NCC(=O)N3` [Vm24, reference compound], for which the IC50 is 21 nM in test [2], 0.15 nM in test [3], 0.097 nM in test [4] and 4.7 nM in test [5]. In test [2], the “Selectivity Kv1.6/Kv1.3” value was found to be 139. Besides, in test [4], the “Selectivity Kv1.1/Kv1.3” value is 0.65. In addition, the “Selectivity Kv1.2/Kv1.3” value in test [5] (ratio IC50[Kv1.2]/IC50[Kv1.3]) was found to be 31.

These data come from patent publication US11780893B2, “Kv1.3 blockers” (Zealand Pharma A/S, priority 2019, dated 2023).
